# According to patent US20250093263A1, “FRET-BASED ASSAYS” (The General Hospital Corporation, priority 2021, published 2025):
# “And” between values parts separate entries of the source, which are not always exact repeats. Identical values can stand only once. Like-named read-outs stand apart in the source and are kept apart here.
# Legend:
# [1] = target: T1, WT Keap1 (tag-free, full-length) (Homo sapiens, UniProt Q14145); experiment: biochemical
# [2] = target: T1, WT Keap1 (tag-free, full-length); experiment: Keap1 TR-FRET Assay 2 (CDDO-FITC/Cora-1-KL9)
# [3] = target: T1, WT Keap1 (tag-free, full-length); experiment: biochemical; conditions: read-out: Assay 1: % at 100
# Keap1 (His/GST) [4] = target: T2, Keap1 (His/GST) (Homo sapiens, UniProt Q14145); experiment: biochemical
# T2 sequence (Q14145 whole entry): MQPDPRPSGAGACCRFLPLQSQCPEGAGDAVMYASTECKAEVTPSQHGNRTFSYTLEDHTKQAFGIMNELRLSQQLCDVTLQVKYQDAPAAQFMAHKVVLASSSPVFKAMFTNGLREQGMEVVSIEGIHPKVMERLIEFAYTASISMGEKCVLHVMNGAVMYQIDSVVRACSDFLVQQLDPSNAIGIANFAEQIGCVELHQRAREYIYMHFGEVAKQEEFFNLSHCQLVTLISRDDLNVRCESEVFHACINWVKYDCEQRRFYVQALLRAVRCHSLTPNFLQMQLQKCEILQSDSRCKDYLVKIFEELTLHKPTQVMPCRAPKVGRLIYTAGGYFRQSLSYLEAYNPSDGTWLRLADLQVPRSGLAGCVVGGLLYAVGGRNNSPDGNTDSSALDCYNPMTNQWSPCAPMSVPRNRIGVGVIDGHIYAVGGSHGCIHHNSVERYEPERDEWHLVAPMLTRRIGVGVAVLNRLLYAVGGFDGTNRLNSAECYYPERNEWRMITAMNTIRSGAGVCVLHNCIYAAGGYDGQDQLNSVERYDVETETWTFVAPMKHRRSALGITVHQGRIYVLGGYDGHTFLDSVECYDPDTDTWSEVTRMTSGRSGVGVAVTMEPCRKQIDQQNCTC
# Keap1 (His/GST) [5] = target: T2, Keap1 (His/GST); experiment: Keap1 TR-FRET Assay 3 (CDDO-FITC/Tb-Anti-6xHis); assay type: binding
# [6] = pH 7.4, 1-octanol / sodium phosphate buffer
# HsGluProRS = target: T3, HsGluProRS (Homo sapiens, UniProt P07814); experiment: HsGluProRS TR-FRET in HEK293 lysate; assay type: binding; conditions: 250 nM tracer, serially diluted HEK293T lysate, anti-HsGluProRS antibodies
# T3 construct: assay was developed utilizing native proteins in cell lysate or intact cells; endogenous in cells
# T3 sequence (P07814 whole entry): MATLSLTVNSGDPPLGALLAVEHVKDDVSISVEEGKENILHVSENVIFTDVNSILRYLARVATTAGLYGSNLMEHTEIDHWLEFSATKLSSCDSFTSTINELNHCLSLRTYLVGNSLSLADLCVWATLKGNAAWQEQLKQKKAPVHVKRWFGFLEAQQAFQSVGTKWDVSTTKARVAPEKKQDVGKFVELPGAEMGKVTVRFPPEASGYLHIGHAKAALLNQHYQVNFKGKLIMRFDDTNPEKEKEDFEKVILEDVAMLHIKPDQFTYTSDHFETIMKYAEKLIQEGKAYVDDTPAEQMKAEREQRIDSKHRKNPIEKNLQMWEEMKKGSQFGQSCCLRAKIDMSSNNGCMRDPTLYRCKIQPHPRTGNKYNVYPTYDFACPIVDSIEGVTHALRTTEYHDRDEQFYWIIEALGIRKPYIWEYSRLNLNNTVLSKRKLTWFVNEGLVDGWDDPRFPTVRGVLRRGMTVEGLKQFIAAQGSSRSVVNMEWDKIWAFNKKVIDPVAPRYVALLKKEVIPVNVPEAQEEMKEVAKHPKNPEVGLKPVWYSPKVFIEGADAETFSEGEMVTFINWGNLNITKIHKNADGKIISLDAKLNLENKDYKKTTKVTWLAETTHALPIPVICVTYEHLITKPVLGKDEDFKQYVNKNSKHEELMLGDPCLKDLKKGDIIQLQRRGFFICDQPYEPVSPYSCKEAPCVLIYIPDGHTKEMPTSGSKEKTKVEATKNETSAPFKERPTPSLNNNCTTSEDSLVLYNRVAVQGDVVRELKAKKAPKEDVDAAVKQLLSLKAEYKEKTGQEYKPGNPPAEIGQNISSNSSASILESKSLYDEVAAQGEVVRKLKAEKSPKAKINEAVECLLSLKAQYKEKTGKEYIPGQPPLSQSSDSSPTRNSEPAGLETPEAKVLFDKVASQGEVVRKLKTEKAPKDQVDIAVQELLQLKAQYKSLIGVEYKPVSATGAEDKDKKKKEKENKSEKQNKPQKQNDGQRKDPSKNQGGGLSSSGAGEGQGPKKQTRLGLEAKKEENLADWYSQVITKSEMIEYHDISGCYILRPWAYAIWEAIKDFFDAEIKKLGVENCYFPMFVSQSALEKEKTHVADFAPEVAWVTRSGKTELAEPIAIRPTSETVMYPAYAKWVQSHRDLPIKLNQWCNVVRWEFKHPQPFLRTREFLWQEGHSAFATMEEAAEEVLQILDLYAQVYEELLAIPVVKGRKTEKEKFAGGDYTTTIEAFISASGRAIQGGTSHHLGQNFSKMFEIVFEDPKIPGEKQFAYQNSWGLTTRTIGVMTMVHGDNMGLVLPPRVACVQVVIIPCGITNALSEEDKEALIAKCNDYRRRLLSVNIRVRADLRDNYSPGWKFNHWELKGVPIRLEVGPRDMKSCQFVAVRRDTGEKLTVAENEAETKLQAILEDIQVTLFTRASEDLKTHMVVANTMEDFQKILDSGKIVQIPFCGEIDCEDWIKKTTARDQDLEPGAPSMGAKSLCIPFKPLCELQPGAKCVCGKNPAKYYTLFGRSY
# Description: Freshly prepared HEK293 cell lysates were serial diluted into flat-bottom, white 384-well plates (Corning 3572).
# Abcam ab31531 was raised against an Abcam-proprietary, recombinant, full-length HsGluProRS protein. Proteintech 67712-1-Ig was raised against a peptide encoding HsGluProRS residues 1163-1512. Cell Signaling Technology CST45956 was raised against a peptide encoding residues surrounding HsGluProRS^P978. CTK0101 (ChromTek) anti-Rabbit-IgG secondary nanobody (single domain nanobody) was previously labeled with CoraFluor-1-Pfp and validated to bind Rabbit IgG antibodies with high affinity.
# For the TR-FRET assay, HEK293T lysate was serially diluted into 384-well plates containing constant concentrations of tracer (either 250 nM MAT574 for ProRS or 250 nM MAT579 for GluRS), one of the antibodies (5 nM), and for the unlabeled antibodies, CoraFluor-1-Pfp labeled nano secondary (20 nM).
# HsProRS = target: T4, HsProRS (Homo sapiens, UniProt P07814); experiment: TR-FRET ProRS ligand displacement / saturation binding assay, HsProRS; conditions: absence of substrates; read-out: HsProRS (KD [nM]) −
# T4 construct: made in house; host or cells: SoluBL-21 E. coli
# T4 sequence (P07814 996-1512): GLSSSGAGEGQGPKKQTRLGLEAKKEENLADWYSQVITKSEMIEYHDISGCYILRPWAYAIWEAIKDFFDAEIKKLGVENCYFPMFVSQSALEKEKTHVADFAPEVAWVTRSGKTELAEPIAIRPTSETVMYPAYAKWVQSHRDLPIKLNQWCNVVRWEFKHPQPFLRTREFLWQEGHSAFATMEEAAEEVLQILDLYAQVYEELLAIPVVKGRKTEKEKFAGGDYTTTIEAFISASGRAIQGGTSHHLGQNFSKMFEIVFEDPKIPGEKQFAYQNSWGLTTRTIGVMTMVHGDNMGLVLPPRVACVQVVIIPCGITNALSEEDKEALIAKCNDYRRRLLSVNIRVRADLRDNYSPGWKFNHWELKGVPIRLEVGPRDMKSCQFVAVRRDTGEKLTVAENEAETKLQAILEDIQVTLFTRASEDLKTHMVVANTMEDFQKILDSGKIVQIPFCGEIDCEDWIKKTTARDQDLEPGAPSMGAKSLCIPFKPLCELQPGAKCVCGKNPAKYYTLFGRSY
# Description: (§1) A stock solution containing CoraFluor-1-Halo-labeled HT-PfcProRS or CoraFluor-1-Halo-labeled HT-HsProRS at the concentration specified for each experiment was prepared in assay buffer (50 mM Tris, pH 7.5, 20 mM KCl, 10 mM MgCl2, 0.05% Tween-20, 1 mM dithiothreitol, and 0.5 mg/mL BSA). […] Plates were mixed on an Ika MTS 2/4 Digital Microtiter Shaker at 750 rpm for 2 min, centrifuged at 1,000×g at 25° C. for 1 min. and allowed to equilibrate at room temperature for 2 h before TR-FRET measurements were taken. […] PRISM 9 (GraphPad) was used to perform non-linear regression analysis (one site—specific binding), plot dose-response curves, and calculate KD values.
# (§2) A Multidrop Combi Reagent Dispenser (ThermoFisher Scientific) was used to dispense 20 μL of 2× protein solution into each well. […] Plates were mixed on an Ika MTS 2/4 Digital Microtiter Shaker at 750 rpm for 2 min, centrifuged at 1,000×g at 25° C. for I min, and allowed to equilibrate for 2 h at room temperature before TR-FRET measurements were taken.
# (§3) PRISM 9 (GraphPad) was used to perform non-linear regression analysis (log(inhibitor) vs. response—Variable slope (four parameters)), plot dose-response curves, and calculate iC50 values.
# (§4) Test compounds were dispensed in duplicate, triplicate, or sextuplicate dose-response format using a D300 digital dispenser (Hewlett Packard). […] Plates were mixed on an Ika MTS 2/4 Digital Microtiter Shaker at 750 rpm for 2 min, centrifuged at 1,000×g at 25° C. for 1 min, and allowed to equilibrate for 2 h at room temperature.
# (§5) GraphPad PRISM was used to perform non-linear regression (log(inhibitor) vs. response—Variable slope (four parameters)), plot dose-response curves, and calculate IC50 values.
# (§6) This assay was generally conducted in the same manner as the CoraFluor-1-Halo format with minor differences. […] Each well was supplemented with 1 nM CoraFluor-1-Pfp-labeled anti-His6 antibody before the 2 h incubation.
# (§7) TR-FRET measurements were acquired in kinetic mode (1 read every ˜45 s) for at least 10 min.
# PfcProRS = target: T5, PfcProRS (Plasmodium falciparum, UniProt Q8I5R7); experiment: biochemical; assay type: binding; conditions: PfcProRS KD, absence of substrates (0 μM ATP)
# T5 construct: made in house; host or cells: SoluBL-21 E. coli
# T5 sequence (Q8I5R7 249-746): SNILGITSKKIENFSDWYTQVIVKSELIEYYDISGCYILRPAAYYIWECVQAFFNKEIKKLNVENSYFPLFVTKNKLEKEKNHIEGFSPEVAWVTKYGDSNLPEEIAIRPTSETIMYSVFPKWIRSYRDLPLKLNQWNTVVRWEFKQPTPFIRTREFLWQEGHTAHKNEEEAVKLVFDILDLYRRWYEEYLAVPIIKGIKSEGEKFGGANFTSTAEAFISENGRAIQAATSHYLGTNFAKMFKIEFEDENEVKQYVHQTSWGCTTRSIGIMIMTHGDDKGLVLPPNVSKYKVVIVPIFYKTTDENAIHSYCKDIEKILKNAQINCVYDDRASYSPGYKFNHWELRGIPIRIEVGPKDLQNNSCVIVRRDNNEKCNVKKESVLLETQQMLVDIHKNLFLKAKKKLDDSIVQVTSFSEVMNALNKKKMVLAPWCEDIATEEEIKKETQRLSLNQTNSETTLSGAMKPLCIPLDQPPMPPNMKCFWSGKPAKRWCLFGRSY
# Description: as §1, §2, §3, §4, §5, §6, §7
# [7] = target: T6, HscPheRS (human cytoplasmic phenylalanyl-tRNA synthetase) (Homo sapiens, UniProt Q9Y285); experiment: PheRS activity-based assay, HscPheRS; assay type: biochemical
# T6 construct: made in house; host or cells: E. coli
# T6 sequence (Q9Y285 1-508): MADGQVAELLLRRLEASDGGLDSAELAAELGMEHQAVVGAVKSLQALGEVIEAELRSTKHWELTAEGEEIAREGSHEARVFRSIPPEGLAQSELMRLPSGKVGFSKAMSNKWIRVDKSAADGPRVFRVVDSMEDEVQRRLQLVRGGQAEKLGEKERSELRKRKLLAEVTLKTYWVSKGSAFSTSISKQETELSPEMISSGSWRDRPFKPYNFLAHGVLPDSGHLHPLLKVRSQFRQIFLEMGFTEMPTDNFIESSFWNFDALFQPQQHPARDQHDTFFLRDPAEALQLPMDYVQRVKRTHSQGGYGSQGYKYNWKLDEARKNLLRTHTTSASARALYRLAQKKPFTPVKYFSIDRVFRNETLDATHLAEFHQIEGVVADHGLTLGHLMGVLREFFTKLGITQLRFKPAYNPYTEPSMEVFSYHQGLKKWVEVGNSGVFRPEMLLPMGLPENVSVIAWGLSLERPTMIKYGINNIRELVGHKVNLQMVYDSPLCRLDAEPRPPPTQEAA
# T6 sequence (Q9NSD9 1-589 partner): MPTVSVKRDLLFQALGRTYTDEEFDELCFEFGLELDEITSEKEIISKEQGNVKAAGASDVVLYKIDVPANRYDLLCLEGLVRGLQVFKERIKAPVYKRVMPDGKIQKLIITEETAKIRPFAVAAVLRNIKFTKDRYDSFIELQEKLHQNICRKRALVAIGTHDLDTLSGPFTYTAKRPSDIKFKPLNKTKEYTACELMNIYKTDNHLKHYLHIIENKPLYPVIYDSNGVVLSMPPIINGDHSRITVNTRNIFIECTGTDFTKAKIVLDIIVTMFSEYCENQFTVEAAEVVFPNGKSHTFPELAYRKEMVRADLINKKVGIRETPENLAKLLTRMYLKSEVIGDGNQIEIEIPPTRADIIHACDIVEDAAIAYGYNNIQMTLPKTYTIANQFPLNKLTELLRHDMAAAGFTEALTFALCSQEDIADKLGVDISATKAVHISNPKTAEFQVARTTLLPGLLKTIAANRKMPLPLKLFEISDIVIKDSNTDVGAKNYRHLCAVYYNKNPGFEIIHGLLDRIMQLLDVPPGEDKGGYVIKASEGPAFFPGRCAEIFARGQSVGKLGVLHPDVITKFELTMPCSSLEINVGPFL
# [8] = target: T7, MtbPheRS (Mycobacterium tuberculosis phenylalanyl-tRNA synthetase) (Mycobacterium tuberculosis, UniProt P9WFU3); experiment: PheRS activity-based assay, MtbPheRS; assay type: biochemical
# T7 construct: made in house; host or cells: Mycobacterium
# T7 sequence (P9WFU3 whole entry): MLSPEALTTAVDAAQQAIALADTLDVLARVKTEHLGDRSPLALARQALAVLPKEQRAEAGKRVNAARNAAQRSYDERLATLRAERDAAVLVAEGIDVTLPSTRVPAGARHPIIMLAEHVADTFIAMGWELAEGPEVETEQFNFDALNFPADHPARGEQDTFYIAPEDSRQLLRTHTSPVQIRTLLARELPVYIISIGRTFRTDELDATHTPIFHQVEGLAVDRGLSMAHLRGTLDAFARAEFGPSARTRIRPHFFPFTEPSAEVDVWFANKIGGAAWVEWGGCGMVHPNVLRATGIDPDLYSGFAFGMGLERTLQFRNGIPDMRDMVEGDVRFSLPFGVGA
# T7 sequence (P9WFU1 whole entry, further chain): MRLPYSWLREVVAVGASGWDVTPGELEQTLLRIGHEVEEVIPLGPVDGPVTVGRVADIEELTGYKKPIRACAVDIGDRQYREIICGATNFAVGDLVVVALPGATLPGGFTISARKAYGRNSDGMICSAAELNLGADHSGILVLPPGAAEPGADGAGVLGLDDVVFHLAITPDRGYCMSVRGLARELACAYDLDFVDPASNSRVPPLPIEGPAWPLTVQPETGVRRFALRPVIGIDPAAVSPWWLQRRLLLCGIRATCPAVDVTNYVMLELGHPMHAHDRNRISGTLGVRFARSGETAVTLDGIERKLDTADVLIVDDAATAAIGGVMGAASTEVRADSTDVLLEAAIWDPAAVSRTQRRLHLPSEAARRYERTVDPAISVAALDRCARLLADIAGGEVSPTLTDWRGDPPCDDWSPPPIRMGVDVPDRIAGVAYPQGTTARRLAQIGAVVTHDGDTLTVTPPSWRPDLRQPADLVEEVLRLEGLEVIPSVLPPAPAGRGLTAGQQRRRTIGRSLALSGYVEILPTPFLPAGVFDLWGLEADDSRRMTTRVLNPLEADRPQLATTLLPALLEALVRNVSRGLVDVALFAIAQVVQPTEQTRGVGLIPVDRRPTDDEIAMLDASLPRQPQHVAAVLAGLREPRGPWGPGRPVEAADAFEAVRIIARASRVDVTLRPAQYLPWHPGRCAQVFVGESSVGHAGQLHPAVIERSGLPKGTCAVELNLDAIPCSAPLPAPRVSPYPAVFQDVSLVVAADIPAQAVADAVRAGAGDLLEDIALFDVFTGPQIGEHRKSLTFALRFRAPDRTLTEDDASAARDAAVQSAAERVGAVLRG
# T1 sequence (Q14145 whole entry): as the sequence (Q14145 whole entry) above
compound,measurement,setting,value
"CC1(C)CC[C@]2(C(=O)NCCCOCCOCCOCCCNC(=S)Nc3ccc(-c4c5ccc(=O)cc-5oc5cc(O)ccc45)c(C(=O)O)c3)CC[C@]3(C)[C@H](C(=O)C=C4[C@@]5(C)C=C(C#N)C(=O)C(C)(C)[C@@H]5CC[C@]43C)[C@@H]2C1 [CDDO-FITC, 5-(3-(1-((4aS,6aR,6bS,8aR,12aS,14aR,14bS)-11-cyano-2,2,6a,6b,9,9,12a-heptamethyl-10,14-dioxo-1,3,4,5,6,6a,6b,7,8,8a,9,10,12a,14,14a,14b-hexadecahydropicen-4a(2H)-yl)-1-oxo-6,9,12-trioxa-2-azapentadecan-15-yl)thioureido)-2-(6-hydroxy-3-oxo-3H-xanthen-9-yl)benzoic acid]",Kd,[1],164 nM
same,Kd,"[2]; Kd of CDDO-FITC, saturation binding at fixed Cora-1-KL9 and Keap1, one-site model",164 ± 37.1 nM
"Cc1sc2c(c1C)C(c1ccc(Cl)cc1)=NC(CC(=O)NCCCOCCOCCOCCCNC(=O)[C@]13CCC(C)(C)C[C@H]1[C@H]1C(=O)C=C4[C@@]5(C)C=C(C#N)C(=O)C(C)(C)[C@@H]5CC[C@@]4(C)[C@]1(C)CC3)c1nnc(C)n1-2 (stereo partly drawn) [CDDO-JQ1, (4aS,6aR,6bS,8aR,12aS,14aR,14bS)-N-(1-(4-(4-chlorophenyl)-2,3,9-trimethyl-6H-thieno[3,2-f][1,2,4]triazolo[4,3-a][1,4]diazepin-6-yl)-2-oxo-7,10,13-trioxa-3-azahexadecan-16-yl)-11-cyano-2,2,6a,6b,9,9,12a-heptamethyl-10,14-dioxo-1,3,4,5,6,6a,6b,7,8,8a,9,10,12a,14,14a,14b-hexadecahydropicene-4a(2H)-carboxamide]",inhibition at 100 µM,[3],< 5%
same,IC50,[1],3370 nM
same,Kd,[1],1770 nM
same,fold less potent than CDDO (CDDO/CDDO-Me),[2]; Assay-2,> 250 fold and > 500 fold
same,IC50,Keap1 (His/GST) [4],495000 nM
same,IC50,Keap1 (His/GST) [5],2680 nM
O=C(CCCCCN1CCN2CCNC(=O)c3cccc(c3[O-])C(=O)NCCN(CCNC(=O)c3cccc(c3[O-])C1=O)CCN1CCNC(=O)c3cccc(c3[O-])C(=O)NCCN(CCNC(=O)c3cccc(c3[O-])C(=O)NCC1)CC2)NCCOCCOCCCCCCCl.[Tb+3] [Cora-1-Halo],log D,[6],−0.7
O=C(CCCCCN1CCN2CCNC(=O)c3cc(Cl)cc(c3[O-])C(=O)NCCN(CCNC(=O)c3cc(Cl)cc(c3[O-])C1=O)CCN1CCNC(=O)c3cc(Cl)cc(c3[O-])C(=O)NCCN(CCNC(=O)c3cc(Cl)cc(c3[O-])C(=O)NCC1)CC2)NCCOCCOCCCCCCCl.[Tb+3] [Cora-2-Halo],log D,[6],0.7
"Nc1ncnc2c1ncn2[C@@H]1O[C@H](CN(CCCCCCOCCOCCNC(=O)c2ccc(C(=O)O)c(-c3c4ccc(=O)cc-4oc4cc(O)ccc34)c2)S(=O)(=O)NC(=O)[C@@H]2CCCN2)[C@@H](O)[C@H]1O [MAT574, 4-((2-(2-((6-((N-(L-prolyl)sulfamoyl)(((2R,3S4R,5R)-5-(6-amino-9H-purin-9-yl)-3,4-dihydroxytetrahydrofuran-2-yl)methyl)amino)hexyl)oxy)ethoxy)ethyl)carbamoyl)-2-(6-hydroxy-3-oxo-3H-xanthen-9-yl)benzoic acid]",TR-FRET signal,HsGluProRS,specific TR-FRET signal
same,Kd,HsProRS,72.2 nM
same,Kd,PfcProRS,2270 nM
"Nc1ncnc2c1ncn2[C@@H]1O[C@H](CN(CCCCCCOCCOCCNC(=O)c2ccc(C(=O)O)c(-c3c4ccc(=O)cc-4oc4cc(O)ccc34)c2)S(=O)(=O)NC(=O)[C@@H](N)CCC(=O)O)[C@@H](O)[C@H]1O [MAT579, 4-((2-(2-((6-((N-(L-glutamyl)sulfamoyl)(((2R,3S,4R,5R)-5-(6-amino-9H-purin-9-yl)-3,4-dihydroxytetrahydrofuran-2-yl)methyl)amino)hexyl)oxy)ethoxy)ethyl)carbamoyl)-2-(6-hydroxy-3-oxo-3H-xanthen-9-yl)benzoic acid]",TR-FRET signal,HsGluProRS,No TR-FRET signal was observed
"Nc1ncnc2c1ncn2[C@@H]1O[C@H](CNS(=O)(=O)NC(=O)[C@@H](N)Cc2ccccc2)[C@@H](O)[C@H]1O [PheSNA, (S)-amino-N-(N-(((2R,3S,4R,5R)-5-(6-amino-9H-purin-9-yl)-3,4-dihydroxytetrahydrofuran-2-y)methyl)sulfamoyl)-3-phenylpropanamide]",IC50,[7],140 nM
same,IC50,[8],2000 nM
"(S)-2-amino-N-(N-(((2R,3S,4R,5R)-S-(6-amino-9H-purin-9-yl)-3,4-dihydroxytetrahydrofuran-2-yl)methyl)-N-(6-(2-(2-aminoethoxy)ethoxy)hexyl)sulfamoyl)-3-phenylpropanamide [MAT581]",IC50,"[8]; phenylalanine 100 μM, ATP 200 μM",206000 nM
